# Reference: patent publication EP0629211B1 (HOECHST AKTIENGESELLSCHAFT, priority 1992, dated 1993)
# Where two headings read alike, the source gives them in different places.
# Experiments:
# [1] = molecular target: T1, Rezeptor (Glykoprotein IIb/IIIa) (Homo sapiens, UniProt P05106+P08514); assay: Inhibition of 125I-fibrinogen binding to its receptor on intact gel-filtered human platelets; conditions: inhibition of 125I-fibrinogen binding after stimulation with ADP (10µM), read-out: Ki (µM), ADP stimuliert
# T1 construct: an intakten, gelfiltrierten Human-Thrombozyten; endogenous in cells; host or cells: intact, gel-filtered human platelets from donor blood, stimulated with ADP (10 µM)
# T1 sequence (P08514 32-887 limits assumed): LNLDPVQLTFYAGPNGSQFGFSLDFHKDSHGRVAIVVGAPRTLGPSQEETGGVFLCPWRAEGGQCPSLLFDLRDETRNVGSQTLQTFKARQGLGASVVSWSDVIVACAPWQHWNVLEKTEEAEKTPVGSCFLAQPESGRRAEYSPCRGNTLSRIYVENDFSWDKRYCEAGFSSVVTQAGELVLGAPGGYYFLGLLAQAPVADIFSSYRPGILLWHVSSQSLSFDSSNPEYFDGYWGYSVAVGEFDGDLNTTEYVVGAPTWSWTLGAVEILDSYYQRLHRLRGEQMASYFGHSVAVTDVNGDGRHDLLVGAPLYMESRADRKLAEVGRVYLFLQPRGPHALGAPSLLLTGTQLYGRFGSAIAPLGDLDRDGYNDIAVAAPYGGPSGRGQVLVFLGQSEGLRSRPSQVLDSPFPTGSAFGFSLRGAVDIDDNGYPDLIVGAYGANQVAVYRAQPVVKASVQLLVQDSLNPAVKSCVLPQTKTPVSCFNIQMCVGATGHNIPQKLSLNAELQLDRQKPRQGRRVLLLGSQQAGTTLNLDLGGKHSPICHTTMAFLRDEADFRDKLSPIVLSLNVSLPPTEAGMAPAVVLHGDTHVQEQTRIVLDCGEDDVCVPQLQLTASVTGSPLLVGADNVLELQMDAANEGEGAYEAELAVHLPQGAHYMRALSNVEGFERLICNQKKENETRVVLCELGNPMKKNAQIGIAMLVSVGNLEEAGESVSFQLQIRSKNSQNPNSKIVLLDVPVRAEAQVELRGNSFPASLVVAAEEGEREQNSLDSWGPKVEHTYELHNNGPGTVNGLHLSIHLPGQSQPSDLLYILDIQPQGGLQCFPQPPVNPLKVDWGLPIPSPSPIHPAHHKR
# T1 sequence (P08514 891-1039 partner limits assumed): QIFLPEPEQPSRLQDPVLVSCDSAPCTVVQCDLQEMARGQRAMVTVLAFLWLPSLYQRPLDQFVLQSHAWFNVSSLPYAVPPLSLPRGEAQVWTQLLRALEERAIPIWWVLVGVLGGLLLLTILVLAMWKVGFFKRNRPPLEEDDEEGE
# T1 sequence (P05106 27-788): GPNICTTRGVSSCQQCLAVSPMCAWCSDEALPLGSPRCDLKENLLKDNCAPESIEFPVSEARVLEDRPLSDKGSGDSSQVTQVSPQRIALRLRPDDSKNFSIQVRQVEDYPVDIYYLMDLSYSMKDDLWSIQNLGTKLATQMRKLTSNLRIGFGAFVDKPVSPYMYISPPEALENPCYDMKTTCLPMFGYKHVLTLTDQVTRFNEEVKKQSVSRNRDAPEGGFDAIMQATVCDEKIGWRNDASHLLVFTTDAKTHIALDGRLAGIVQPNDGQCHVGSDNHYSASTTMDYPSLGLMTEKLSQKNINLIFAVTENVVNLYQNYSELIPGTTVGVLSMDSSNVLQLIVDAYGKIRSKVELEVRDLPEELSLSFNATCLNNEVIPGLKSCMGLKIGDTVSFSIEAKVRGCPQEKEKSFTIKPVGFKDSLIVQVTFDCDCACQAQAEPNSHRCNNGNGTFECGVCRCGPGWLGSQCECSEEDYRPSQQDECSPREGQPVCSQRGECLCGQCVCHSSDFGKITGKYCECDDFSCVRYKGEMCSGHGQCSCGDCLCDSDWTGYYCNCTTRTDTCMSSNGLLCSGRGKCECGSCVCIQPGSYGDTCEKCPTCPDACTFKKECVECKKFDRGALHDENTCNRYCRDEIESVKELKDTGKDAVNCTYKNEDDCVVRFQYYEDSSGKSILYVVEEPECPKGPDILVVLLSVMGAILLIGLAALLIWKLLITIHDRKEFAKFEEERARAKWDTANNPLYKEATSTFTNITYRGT
# Text: (§1) Geprüft werden die Verbindungen vor allem auf ihre hemmende Wirkung bei der Blutplättchenaggregation und der Anhaftung von Fibrinogen an Blutplättchen. Verwendet werden gefiltrierte Blutplättchen aus humanem Spenderblut, die mit ADP oder Thrombin aktiviert werden.
# Geprüft wird die Hemmung der Bindung von Fibrinogen an seinen Rezeptor (Glykoprotein IIb/IIIa) an intakten, gelfiltrierten Human-Thrombozyten durch die erfindungsgemäßen Verbindungen. Angegeben ist der Ki Wert der Bindungshemmung von ^125I-Fibrinogen nach Stimulierung mit ADP (10µM).
# [2] = system: gelfiltrierter Human-Thrombozyten; assay: Inhibition of aggregation of gel-filtered human platelets after ADP or thrombin stimulation; format: cell-based; conditions: platelet aggregation
# Text: as §1
# Als funktioneller Test wird die Hemmung der Aggregation gelfiltrierter Human-Thrombozyten nach ADP- oder Thrombin-Stimulierung durch die erfindungsgemäßen Verbindungen gemessen. Angegeben ist der IC50-Wert der Hemmung.
# [3] = ADP-stimulated, read-out: IC50 (µM), ADP-stimuliert
# [4] = thrombin-stimulated, read-out: IC50 (µM), Thrombin-stimuliert
SMILES,Ki [1] [µM],"IC50 [2, 3] [µM]","IC50 [2, 4] [µM]"
N=C(N)NCCC[C@@H]1NC(=S)N(CC(=O)N[C@@H](CC(=O)O)C(=O)N[C@H](C(=O)O)c2ccccc2)C1=O,0.07,0.5,0.1
"N=C(N)c1ccc(CC2NC(=S)N(CC(=O)N[C@@H](CC(=O)O)C(=O)N[C@H](C(=O)O)c3ccccc3)C2=O)cc1 (stereo partly drawn) [Beispiel 2, (5-(S,R)-(4-Formamidino-benzyl)-4-oxo-2-thioxoimidazolidin-3-yl)-acetyl-L-aspartyl-L-phenylglycin]",0.2,0.55,0.2
